According to patent US12304912B2, “Fused bicyclic RAF inhibitors and methods for use thereof” (Jazz Pharmaceuticals Ireland Limited, priority 2020, dated 2025):
Structures can show the parent of a compound that is named as a salt. Where two headings read alike, the source gives them in different places.

Key:
[1] = Microsomal stability assay, human liver microsomes (HLM); assay type: in vitro ADME; conditions: 0.5 mg/mL protein, 1 μM substrate
Procedure, shortened: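 Substrate depletion: 1 μM compound incubated at 37° C. with cryopreserved mouse or human liver microsomes at 0.5 mg·mL^−1 protein. Timed aliquots quenched in ice-cold organic solvent and measured by LC-MS/MS; t1/2 and CLint derived from the slope of ln % remaining versus time.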

[2] = tested on: constitutive ERK phosphorylation in WiDr cells; assay: WiDr AlphaLISA SureFire pERK1/2 cellular assay; assay type: cell-based, human; conditions: WiDr cells, 2 hr; for IC50: Homo sapiens, read-out: pERK WiDr (2 hr) Abs pIC50 (converted)
Protocol: The human HCT-116 colorectal carcinoma cell line (ATCC CCL-247) endogenously expresses the KRAS^G13D mutation, which leads to constitutive activation of the MAP kinase pathway and phosphorylation of ERK. […] Assay read outs took place 2 or 24 hours after dosing with compounds. On the first day, HCT-116 cells were harvested, resuspended in growth medium (McCoys5A with Glutamax (Life Technologies 36600021) and 10% heat-inactivated fetal bovine serum (Sigma F9665)), and counted. Cells were plated in 100 μl per well in each well of a 96-well culture dish (Sigma CLS3598) to a final density of 30,000 (2 hr read) or 15,000 (24 hr read) cells per well and incubated over night at 37° C. and 5% CO2. On day 2, the growth medium was exchanged for dosing medium (McCoys5A with Glutamax (Life Technologies 36600021) and 1% heat-inactivated fetal bovine serum (Sigma F9665)) and the cells were dosed with compounds to produce a 10-point dose response, where the top concentration was 1 μM and subsequent concentrations were at 1/3 log dilution intervals. A matched DMSO control was included. The cells were subsequently incubated for either 2 or 24 hours at 37° C. and 5% CO2. After incubation, media was removed and the cells were incubated with lysis buffer containing phosphatase inhibitors for 15 minutes at room temperature. Cell lysates were transferred to a 12 area 96 well white Optiplate™ (Perkin Elmer 6005569) and incubated with anti-mouse IgG acceptor beads, a biotinylated anti-ERK1/2 rabbit antibody recognizing both phosphorylated and non-phosphorylated ERK1/2, a mouse antibody targeted to the Thr202/Tyr204 epitope and recognizing phosphorylated ERK proteins only, and streptavidin-coated donor beads. The biotinylated antibody binds to the streptavidin-coated donor beads and the phopsho-ERK1/2 antibody binds to the acceptor beads. Plates were read on an EnVision reader (Perkin Elmer) and excitation of the beads at 680 nm with a laser induced the release of singlet oxygen molecules from the donor beads that trigger energy transfer to the acceptor beads in close proximity, producing a signal that can be measured at […]. Both antibodies bound to phosphorylated ERK proteins, bringing the donor and acceptor beads into close proximity. All data were analyzed using the Dotmatics or GraphPad Prism software packages. Inhibition of ERK phosphorylation was assessed by determination of the absolute IC50 value, which is defined as the concentration of compound required to decrease the level of phosphorylated ERK proteins by 50% when compared to DMSO control.
WiDr AlphaLISA SureFire pERK1/2 Cellular Assay
The human WiDr colorectal adenocarcinoma cell line (ATCC CCL-218) endogenously expresses the BRAF^V600E mutation, which leads to constitutive activation of the MAP kinase pathway and phosphorylation of ERK. […] The main procedure is essentially the same as for HCT-116 cells (above), with the following adjustments to the growth medium (Eagle's Minimum Essential Medium (Sigma M2279) with 1× Glutamax (Life Technologies 35050038), 1× Sodium-Pyruvate (Sigma S8636), and 10% heat-inactivated fetal bovine serum (Sigma F9665)), the dosing medium (Eagle's Minimum Essential Medium (Sigma M2279) with 1× Glutamax (Life Technologies 35050038), 1× Sodium-Pyruvate (Sigma S8636), and 1% heat-inactivated fetal bovine serum (Sigma F9665)), and the seeding densities (2 hr: 50,000 cells per well; 24 hr: 35,000 cells per well). Moreover, the compounds were dosed in 1/2 log dilution intervals with the top concentration of 10 μM.

[3] = tested on: BRAF monomers in A375 cells; assay: A375 AlphaLISA SureFire pERK1/2 cellular assay (monomer); assay type: cell-based; conditions: Homo sapiens, A-375; A375 cells, 1 hr; read-out: pERK A375 (1 hr) pIC50 (converted)
Procedure, shortened: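 BRAF^V600E A375 melanoma cells seeded at 30,000/well in DMEM with 10% FBS, dosed without medium exchange in a 10-point series from 10 μM at 1/2-log steps, 1 h at 37 °C. Phospho-ERK1/2 (Thr202/Tyr204) measured in lysates by AlphaLISA SureFire; absolute IC50 relative to DMSO control.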

Row | SMILES | microsomal CLint at 1 μM [1] | IC50 ([2]; absolute IC50) | IC50 [3] | microsomal CLint at 1 μM ([1]; 37° C.) | IC50 ([2]; Abs) | pERK WiDr (2 hr) Abs pIC50 ([2]; Abs) | HLM (CLint) ([1]; 37° C.)
1 | O=C1CCc2c(Oc3ccc4c(c3)CC(c3nc5cc(C(F)(F)F)ncc5[nH]3)CO4)ccnc2N1 (racemic) [Compound 32] | 11.3 µL/min/mg | 204 nM | 251 nM |  |  |  | 
2 | O=C(Nc1cc(Oc2ccc3c(c2)CC(c2nc(-c4ccccc4)c[nH]2)CO3)ccn1)C1CC1 (racemic) [Compound 136] |  |  | 162 nM | 58.1 µL/min/mg | 66.1 nM |  | 
3 | O=C1CCc2c(Oc3ccc4c(c3)CC(c3nc(-c5ccnc(C(F)(F)F)c5)c[nH]3)CO4)ccnc2N1 (stereo not drawn) [Compound 8, 5-[3-[4-[2-(trifluoromethyl)-4-pyridyl]-1H-imidazol-2-yl]chroman-6-yl]oxy-3,4-dihydro-1H-1,8-naphthyridin-2-one] | 36 µL/min/mg | 178 nM | 316 nM |  |  | 6.75 | 
4 | O=C1CCc2c(Oc3ccc4c(c3)CC(c3nc(-c5cccc(C(F)(F)F)c5)c[nH]3)CO4)ccnc2N1 (stereo not drawn) [Compound 12, 5-[3-[4-[3-(trifluoromethyl)phenyl]-1H-imidazol-2-yl]chroman-6-yl]oxy-3,4-dihydro-1H-1,8-naphthyridin-2-one] | 88.6 µL/min/mg | 123 nM | 42.7 nM |  |  |  | 
5 | COc1cc(-c2c[nH]c(C3COc4ccc(Oc5ccnc6c5CCC(=O)N6)cc4C3)n2)ccn1 (stereo not drawn) [Compound 19, 5-[3-[4-(2-methoxy-4-pyridyl)-1H-imidazol-2-yl]chroman-6-yl]oxy-3,4-dihydro-1H-1,8-naphthyridin-2-one] | 27.8 µL/min/mg | 1100 nM | 1620 nM |  |  |  | 
6 | O=C1CCc2c(Oc3ccc4c(c3)CC(c3nc5cc(C(F)(F)F)ccc5[nH]3)CO4)ccnc2N1 (stereo not drawn) [Compound 22, 5-[3-[6-(trifluoromethyl)-1H-benzimidazol-2-yl]chroman-6-yl]oxy-3,4-dihydro-1H-1,8-naphthyridin-2-one] | 35.9 µL/min/mg | 120 nM | 20 nM |  |  |  | 
7 | O=C1CCc2c(Oc3ccc4c(c3)CC(c3nc5cc(F)c(F)cc5[nH]3)CO4)ccnc2N1 (stereo not drawn) [Compound 23] | 29.9 µL/min/mg | 229 nM | 257 nM |  |  |  | 
8 | N#Cc1ccc2[nH]c(C3COc4ccc(Oc5ccnc6c5CCC(=O)N6)cc4C3)nc2c1 (stereo not drawn) [Compound 24] | 12.7 µL/min/mg | 501 nM | 562 nM |  |  |  | 
9 | O=C1CCc2c(Oc3ccc4c(c3)CC(c3nc5cc(Cl)ccc5[nH]3)CO4)ccnc2N1 (stereo not drawn) [Compound 25] | 50.1 µL/min/mg | 129 nM | 115 nM |  |  |  | 
10 | CN(C)c1ccc2[nH]c(C3COc4ccc(Oc5ccnc6c5CCC(=O)N6)cc4C3)nc2c1 (stereo not drawn) [Compound 26] | 77.5 µL/min/mg | 302 nM | 64.6 nM |  |  |  | 
11 | Cc1cc2nc(C3COc4ccc(Oc5ccnc6c5CCC(=O)N6)cc4C3)[nH]c2cc1C (stereo not drawn) [Compound 29] | 119 µL/min/mg | 107 nM | 32.4 nM |  |  |  | 
12 | O=C1CCc2c(Oc3ccc4c(c3)CN(c3nc(-c5ccccc5)n[nH]3)CC4)ccnc2N1 [Compound 44, 5-[[2-(3-phenyl-1H-1,2,4-triazol-5-yl)-3,4-dihydro-1H-isoquinolin-7-yl]oxy]-3,4-dihydro-1H-1,8-naphthyridin-2-one hydrochloride] | 14.2 µL/min/mg | 355 nM | 1200 nM |  |  |  | 
13 | O=C(Nc1cc(Oc2ccc3c(c2)CC(c2nc(-c4ccccc4)c[nH]2)CO3)ccn1)C1CC1 (stereo not drawn) [Compound 45, N-[4-[3-(4-phenyl-1H-imidazol-2-yl)chroman-6-yl]oxy-2-pyridyl]cyclopropanecarboxamide] | 58.1 µL/min/mg | 66.1 nM | 162 nM |  |  |  | 
14 | O=C1CCc2c(Oc3ccc4c(c3)CN(C(=O)Nc3ccc(C(F)(F)F)cc3)CC4)ccnc2N1 [Compound 47] | 24.5 µL/min/mg | 117 nM | 229 nM |  |  |  | 
15 | O=C1CCc2c(Oc3ccc4c(c3)CN(C(=O)Nc3cccc(C(F)(F)F)c3)CC4)ccnc2N1 [Compound 50] | 70.4 µL/min/mg | 97.7 nM | 269 nM |  |  |  | 
16 | O=C1CCc2c(Oc3ccc4c(c3)CC(c3nc(-c5ccnc(C(F)F)c5)c[nH]3)CO4)ccnc2N1 (stereo not drawn) [Compound 101, 5-[3-[4-[2-(difluoromethyl)-4-pyridyl]-1H-imidazol-2-yl]chroman-6-yl]oxy-3,4-dihydro-1H-1,8-naphthyridin-2-one] |  |  | 204 nM | 29.6 µL/min/mg | 182 nM |  | 
17 | O=C1CCc2c(Oc3ccc4c(c3)CC(c3nc(-c5cncc(C(F)(F)F)c5)c[nH]3)CO4)ccnc2N1 (stereo not drawn) [Compound 103, 5-[3-[4-[5-(trifluoromethyl)-3-pyridyl]-1H-imidazol-2-yl]chroman-6-yl]oxy-3,4-dihydro-1H-1,8-naphthyridin-2-one] |  |  | 389 nM | 11.6 µL/min/mg | 269 nM |  | 
18 | COc1cc(-c2c[nH]c(C3COc4ccc(Oc5ccnc6c5CCC(=O)N6)cc4C3)n2)ccn1 (stereo not drawn) [Compound 104] |  |  |  |  |  | 5.96 | 27.8 µL/min/mg
19 | O=C1CCc2c(Oc3ccc4c(c3)CC(c3nc(-c5cncc(C(F)F)c5)c[nH]3)CO4)ccnc2N1 (stereo not drawn) [Compound 105, 5-[3-[4-[5-(difluoromethyl)-3-pyridyl]-1H-imidazol-2-yl]chroman-6-yl]oxy-3,4-dihydro-1H-1,8-naphthyridin-2-one] |  |  | 417 nM | 24.8 µL/min/mg | 269 nM |  | 
20 | Cc1cc(-c2c[nH]c(C3COc4ccc(Oc5ccnc6c5CCC(=O)N6)cc4C3)n2)n(C)n1 (stereo not drawn) [Compound 106, 5-[3-[4-(2,5-dimethylpyrazol-3-yl)-1H-imidazol-2-yl]chroman-6-yl]oxy-3,4-dihydro-1H-1,8-naphthyridin-2-one] |  |  | 933 nM | 10.5 µL/min/mg | 589 nM |  | 
21 | Cn1nc(C2CC2)cc1-c1c[nH]c(C2COc3ccc(Oc4ccnc5c4CCC(=O)N5)cc3C2)n1 (stereo not drawn) [Compound 125, 5-[3-[4-(5-cyclopropyl-2-methyl-pyrazol-3-yl)-1H-imidazol-2-yl]chroman-6-yl]oxy-3,4-dihydro-1H-1,8-naphthyridin-2-one] |  |  | 4470 nM |  | 977 nM |  | 
22 | O=C1CCc2c(Oc3ccc4c(c3)CC(c3nc(-c5ccc(C(F)(F)F)nc5)c[nH]3)CO4)ccnc2N1 (stereo not drawn) [Compound 127, 5-[3-[4-[6-(trifluoromethyl)-3-pyridyl]-1H-imidazol-2-yl]chroman-6-yl]oxy-3,4-dihydro-1H-1,8-naphthyridin-2-one] |  |  | 851 nM | 38.7 µL/min/mg |  |  | 
23 | O=C1CCc2c(Oc3ccc4c(c3)CC(c3nc(-c5cccnc5C(F)(F)F)c[nH]3)CO4)ccnc2N1 (stereo not drawn) [Compound 128, 5-[3-[4-[2-(trifluoromethyl)-3-pyridyl]-1H-imidazol-2-yl]chroman-6-yl]oxy-3,4-dihydro-1H-1,8-naphthyridin-2-one] |  |  | 832 nM |  |  |  | 
24 | O=C(Nc1cc(Oc2ccc3c(c2)CC(c2nc(-c4ccccc4)c[nH]2)CO3)ccn1)C1(F)CC1 (stereo not drawn) [Compound 138] |  |  | 1620 nM | 134 µL/min/mg |  |  | 
25 | O=C(Nc1cc(Oc2ccc3c(c2)CC(c2nc(-c4ccccc4)c[nH]2)CO3)ccn1)C1CC(F)(F)C1 (stereo not drawn) [Compound 139] |  |  | 1070 nM | 99.8 µL/min/mg |  |  | 
